{"source": "patent US12479866B2", "about": "“Boron-containing rho kinase inhibitors” (Percipiad, Inc., priority 2019, dated 2025)", "type_in_all_cases": "biochemical", "key": {"ROCK2 [1]": {"biological_target": "T1, ROCK2 (Homo sapiens (Human), UniProt O75116)", "experiment": "ROCK2 ADP-Glo kinase enzyme inhibition assay", "experimental": "(§1) We measured ROCK and PKA kinase enzyme activity inhibition by compounds using commercially available ROCK1 (Promega Corporation, cat #V9581), ROCK2 (Promega, cat #V4045), and PKA kinase (Promega, cat #V4247) ADP-Glo™ assay kits. ADP-Glo™ Kinase Assay is a luminescent ADP detection assay that provides a homogeneous method to measure kinase activity by quantifying the amount of ADP produced during a kinase reaction. The assay is performed in two steps. First, after the kinase reaction, an equal volume of ADP-Glo™ Reagent is added to terminate the kinase reaction and deplete the remaining ATP. Second, the Kinase Detection Reagent is added to simultaneously convert ADP to ATP and allow the newly synthesized ATP to be measured using a luciferase/luciferin reaction. The light generated is measured using a luminometer. A complete protocol is included with the kits and is also available at the Promega website. The assay is briefly described below. • 1. Diluted enzyme, substrate, ATP, and compounds (inhibitors) in Kinase Buffer (40 mM Tris, 7.5, 20 mM MgCl2, 0.1 mg/ml BSA, 50 μM DTT). • 2. Added 1 μl of inhibitor, 2 μl of enzyme and 2 μl of substrate/ATP mix to the wells of 384-well low volume nonbinding assay plate A series of three-fold dilution of inhibitor was prepared and assayed for each inhibitor. • 3. Incubated at room temperature for 60 minutes. • 4. Added 5 μl of ADP-Glo™ Reagent. • 5. Incubated at room temperature for 60 minutes. • 6. Added 10 μl of Kinase Detection Reagent • 7. Incubated at room temperature for 30 minutes.\n(§2) Recorded luminescence (Integration time 1 second) using a plate-based luminometer.\nCalculated Percent Enzyme Activity: First subtract the signal of the negative control (no enzyme and no inhibitor) from each sample's signal. Then use the mean relative light units (RLU) values for the 0% kinase activity (neither inhibitor nor enzyme) and the 100% kinase activity (no compound) to calculate the other percent enzyme activities remaining in the presence of the different dilutions of inhibitor.\nInhibitor stock solutions of 10 mM are made in DMSO and stored at −20° C. Dilutions were made in assay buffer immediately before use."}, "PKA [2]": {"biological_target": "T2, PKA (Homo sapiens (Human), UniProt P17612)", "experiment": "PKA ADP-Glo kinase enzyme inhibition assay", "conditions": "read-out: PKAIC50", "experimental": "as §1, with “Added 1 μl of inhibitor, 2 μl of enzyme and 2 μl of substrate/ATP mix to the wells of 384-well low volume nonbinding assay plate A series of three-fold dilution of inhibitor was prepared and assayed for each inhibitor. • 3. Incubated at room temperature for 60 minutes. • 4. Added 5 μl of ADP-Glo™ Reagent. • 5. Incubated at room temperature for 60 minutes. • 6. Added 10 μl of Kinase Detection Reagent • 7. Incubated at room temperature for 30 minutes.” left out\nas §2\nCalculated Percent Enzyme Activity: First subtract the signal of the negative control (no enzyme and no inhibitor) from each sample's signal. […]"}, "MRCKa": {"biological_target": "MRCKa (Homo sapiens (Human), UniProt Q5VT25)", "sequence (Q5VT25 whole entry)": "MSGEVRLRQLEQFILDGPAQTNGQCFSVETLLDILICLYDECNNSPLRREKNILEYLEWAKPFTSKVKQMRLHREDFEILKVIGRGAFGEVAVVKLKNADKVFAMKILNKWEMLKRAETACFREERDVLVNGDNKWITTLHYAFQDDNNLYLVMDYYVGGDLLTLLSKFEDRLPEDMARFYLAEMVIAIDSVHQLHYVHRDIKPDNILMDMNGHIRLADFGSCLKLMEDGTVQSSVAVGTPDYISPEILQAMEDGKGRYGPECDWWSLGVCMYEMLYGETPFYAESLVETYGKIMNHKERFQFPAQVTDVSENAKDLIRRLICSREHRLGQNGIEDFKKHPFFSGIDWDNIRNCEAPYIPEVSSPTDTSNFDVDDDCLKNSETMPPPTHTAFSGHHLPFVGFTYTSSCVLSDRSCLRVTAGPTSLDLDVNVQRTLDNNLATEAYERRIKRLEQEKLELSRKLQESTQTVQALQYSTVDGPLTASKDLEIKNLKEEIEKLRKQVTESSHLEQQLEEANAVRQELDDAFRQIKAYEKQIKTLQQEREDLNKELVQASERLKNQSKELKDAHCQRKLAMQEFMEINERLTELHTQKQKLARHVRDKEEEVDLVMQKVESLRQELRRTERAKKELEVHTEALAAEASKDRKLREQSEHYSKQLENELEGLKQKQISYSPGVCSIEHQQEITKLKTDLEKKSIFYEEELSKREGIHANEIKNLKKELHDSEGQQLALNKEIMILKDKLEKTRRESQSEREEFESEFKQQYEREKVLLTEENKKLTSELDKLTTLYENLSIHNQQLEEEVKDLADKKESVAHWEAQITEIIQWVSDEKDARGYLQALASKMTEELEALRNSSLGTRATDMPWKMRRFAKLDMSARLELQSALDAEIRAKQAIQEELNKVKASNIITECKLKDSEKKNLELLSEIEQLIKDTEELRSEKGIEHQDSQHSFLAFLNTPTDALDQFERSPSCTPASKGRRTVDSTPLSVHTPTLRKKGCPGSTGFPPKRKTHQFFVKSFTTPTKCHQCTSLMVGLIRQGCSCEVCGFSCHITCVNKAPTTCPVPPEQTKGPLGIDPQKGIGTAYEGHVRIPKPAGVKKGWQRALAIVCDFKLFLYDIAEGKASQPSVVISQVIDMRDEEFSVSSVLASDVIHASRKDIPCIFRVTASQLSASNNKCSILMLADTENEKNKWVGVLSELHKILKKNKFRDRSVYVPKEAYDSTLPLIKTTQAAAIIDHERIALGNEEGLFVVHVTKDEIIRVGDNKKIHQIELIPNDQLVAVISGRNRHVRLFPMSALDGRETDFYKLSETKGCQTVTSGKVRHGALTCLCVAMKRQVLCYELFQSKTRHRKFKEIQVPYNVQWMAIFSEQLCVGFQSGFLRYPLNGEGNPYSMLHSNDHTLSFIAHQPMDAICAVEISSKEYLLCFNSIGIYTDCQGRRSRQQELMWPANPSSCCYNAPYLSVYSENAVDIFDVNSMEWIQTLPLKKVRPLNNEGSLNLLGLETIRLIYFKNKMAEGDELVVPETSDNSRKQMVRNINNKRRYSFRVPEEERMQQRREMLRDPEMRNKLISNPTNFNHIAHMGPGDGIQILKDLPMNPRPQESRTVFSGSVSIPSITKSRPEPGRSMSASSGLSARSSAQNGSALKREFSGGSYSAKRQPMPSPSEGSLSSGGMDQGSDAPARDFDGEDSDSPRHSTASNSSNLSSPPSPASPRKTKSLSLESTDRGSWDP", "experiment": "Radioisotope filter binding kinase assay", "conditions": "10 uM ATP, read-out: IC50 estimates, MRCKa", "experimental": "(§3) Experiment was conducted by Absorption Systems. […] The radioisotope filter binding assay is considered the gold standard for kinase profiling. The assay directly detects the true product without the use of modified substrates, coupling enzymes, or detection antibodies. Compounds are incubated with kinase, substrate, cofactors, and radioisotope-labeled ATP (^33P-Y-ATP). The reaction mixtures are then spotted onto filter papers, which bind the radioisotope-labeled catalytic product. Unreacted phosphate is removed via washing of the filter papers.\n(§4) • Prepare kinase-specific substrate in freshly prepared Base Reaction Buffer (20 mM Hepes (pH 7.5), 10 mM MgCl2, 1 mM EGTA, 0.02% Brij35, 0.02 mg/ml BSA, 0.1 mM Na3VO4, 2 mM DTT, 10 µM ATP, and 1% DMSO). • Add kinase enzyme into the substrate solution and gently mix. • Add compounds in DMSO into the kinase reaction mixture by Acoustic technology (Echo550; nanoliter range), incubate for 20 minutes at room temperature. • Add ^33P-ATP (specific activity 10 μCi/μl)) into the reaction mixture to initiate the reaction. • Incubate kinase reaction for 2 hours at room temperature. • Spot reactions onto P81 ion exchange paper. • Detect kinase activity by filter-binding method."}, "PKA [3]": {"biological_target": "T2, PKA", "experiment": "Radioisotope filter binding kinase assay", "conditions": "10 uM ATP, read-out: IC50 estimates, PKA", "experimental": "as §3, §4"}, "PKCtheta": {"biological_target": "PKCtheta (Homo sapiens (Human), UniProt Q04759)", "sequence (Q04759 whole entry)": "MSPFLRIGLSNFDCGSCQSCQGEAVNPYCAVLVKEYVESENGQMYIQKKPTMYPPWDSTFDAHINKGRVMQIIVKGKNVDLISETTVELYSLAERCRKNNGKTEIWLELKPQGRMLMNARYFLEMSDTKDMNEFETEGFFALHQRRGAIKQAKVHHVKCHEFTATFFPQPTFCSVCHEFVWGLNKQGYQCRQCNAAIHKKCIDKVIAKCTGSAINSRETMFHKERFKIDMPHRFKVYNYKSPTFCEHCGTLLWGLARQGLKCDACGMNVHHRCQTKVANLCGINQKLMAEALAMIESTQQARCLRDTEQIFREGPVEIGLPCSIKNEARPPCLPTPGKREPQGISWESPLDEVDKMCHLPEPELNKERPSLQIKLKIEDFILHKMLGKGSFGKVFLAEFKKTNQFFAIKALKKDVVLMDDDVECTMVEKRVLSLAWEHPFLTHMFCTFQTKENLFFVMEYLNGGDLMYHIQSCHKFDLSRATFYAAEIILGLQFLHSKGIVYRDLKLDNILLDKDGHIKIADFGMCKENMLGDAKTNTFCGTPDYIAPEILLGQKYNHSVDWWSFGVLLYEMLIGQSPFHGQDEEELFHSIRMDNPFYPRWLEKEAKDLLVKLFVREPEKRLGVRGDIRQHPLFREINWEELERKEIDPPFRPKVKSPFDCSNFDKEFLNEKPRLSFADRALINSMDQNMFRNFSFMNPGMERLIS", "experiment": "Radioisotope filter binding kinase assay", "conditions": "10 uM ATP, read-out: IC50 estimates, PKCtheta", "experimental": "as §3, §4"}, "ROCK1": {"biological_target": "ROCK1 (Homo sapiens (Human), UniProt Q13464)", "sequence (Q13464 whole entry, species assumed)": "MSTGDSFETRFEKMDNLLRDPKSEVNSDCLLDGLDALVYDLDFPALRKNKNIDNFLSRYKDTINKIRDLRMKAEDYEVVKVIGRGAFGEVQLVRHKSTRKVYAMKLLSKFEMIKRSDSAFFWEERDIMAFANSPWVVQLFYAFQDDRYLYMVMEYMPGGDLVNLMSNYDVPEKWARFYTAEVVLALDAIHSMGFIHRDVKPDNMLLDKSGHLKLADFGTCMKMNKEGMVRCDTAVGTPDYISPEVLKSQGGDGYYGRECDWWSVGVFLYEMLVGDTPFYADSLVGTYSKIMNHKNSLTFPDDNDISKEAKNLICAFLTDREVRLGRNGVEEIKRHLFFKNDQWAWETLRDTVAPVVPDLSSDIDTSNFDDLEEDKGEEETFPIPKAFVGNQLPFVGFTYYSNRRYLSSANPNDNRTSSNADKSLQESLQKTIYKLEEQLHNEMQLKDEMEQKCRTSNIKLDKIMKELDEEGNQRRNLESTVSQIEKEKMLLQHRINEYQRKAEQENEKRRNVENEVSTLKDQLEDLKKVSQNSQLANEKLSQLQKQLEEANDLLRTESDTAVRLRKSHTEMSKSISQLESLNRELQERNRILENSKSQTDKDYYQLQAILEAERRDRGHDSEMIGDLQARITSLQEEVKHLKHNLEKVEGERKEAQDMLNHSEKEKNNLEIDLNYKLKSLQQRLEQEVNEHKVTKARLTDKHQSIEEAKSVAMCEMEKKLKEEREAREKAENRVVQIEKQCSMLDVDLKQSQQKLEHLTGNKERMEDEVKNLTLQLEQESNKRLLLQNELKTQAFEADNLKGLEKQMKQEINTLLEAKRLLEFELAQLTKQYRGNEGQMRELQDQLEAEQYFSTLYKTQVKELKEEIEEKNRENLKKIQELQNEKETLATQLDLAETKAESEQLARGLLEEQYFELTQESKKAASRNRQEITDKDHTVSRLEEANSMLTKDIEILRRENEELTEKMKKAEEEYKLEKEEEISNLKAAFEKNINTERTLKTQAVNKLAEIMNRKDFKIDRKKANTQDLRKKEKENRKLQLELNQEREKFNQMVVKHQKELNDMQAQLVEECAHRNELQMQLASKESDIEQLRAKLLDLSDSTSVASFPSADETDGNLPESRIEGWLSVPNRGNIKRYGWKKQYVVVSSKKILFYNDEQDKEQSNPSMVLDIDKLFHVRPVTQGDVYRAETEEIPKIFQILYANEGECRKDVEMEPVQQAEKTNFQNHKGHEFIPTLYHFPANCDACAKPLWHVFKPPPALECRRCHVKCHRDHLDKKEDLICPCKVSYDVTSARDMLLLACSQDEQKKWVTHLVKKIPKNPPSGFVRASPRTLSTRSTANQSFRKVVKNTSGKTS", "experiment": "Radioisotope filter binding kinase assay", "conditions": "10 uM ATP, read-out: IC50 estimates, ROCK1", "experimental": "as §3, §4"}, "ROCK2 [4]": {"biological_target": "T1, ROCK2", "experiment": "Radioisotope filter binding kinase assay", "conditions": "10 uM ATP, read-out: IC50 estimates, ROCK2", "experimental": "as §3, §4"}}, "data": [{"molecule": "NCC(C(=O)Nc1ccc2cnccc2c1)c1ccc(CO)cc1", "note": "(racemic) [Netarsudil-M1-racemate•2HCl, Netarsdil-M1-(racemic), reference compound]", "values": [{"measurement": "IC50", "setting": "ROCK2 [1]; Exp #2, read-out: ROCK2 IC50(Exp #2)", "value": 66, "unit": "nM"}, {"measurement": "IC50", "setting": "ROCK2 [1]; Exp #3, read-out: ROCK2 IC50(Exp #3)", "value": 15, "unit": "nM"}, {"measurement": "IC50", "setting": "PKA [2]", "value": 23, "unit": "nM"}, {"measurement": "IC50", "setting": "MRCKa", "value": "> 10", "unit": "µM"}, {"measurement": "IC50", "setting": "PKA [3]", "value": 12, "unit": "nM"}, {"measurement": "IC50", "setting": "PKCtheta", "value": 5.13, "unit": "µM"}, {"measurement": "IC50", "setting": "ROCK1", "value": 15, "unit": "nM"}, {"measurement": "IC50", "setting": "ROCK2 [4]", "value": 6, "unit": "nM"}]}]}
